This passage reports Mortality results from US20130331417A1, “INSECTICIDAL MIXTURES WITH IMPROVED PROPERTIES” (BAYER INTELLECTUAL PROPERTY GMBH, priority 2010, published 2013).

For one data set, the system named is Myzus persicae. The data set is described as follows: Myzus persicae test, oil seed rape seed treatment. It is filed as in vivo. Conditions: after 2 days. As for the experimental part: (§1) The expected efficacy of a given combination of two compounds is calculated as follows (see Colby, S .R., “Calculating Synergistic and antagonistic Responses of Herbicide Combinations”, Weeds 15, pp. 20-22, 1967):
(§2) If the observed insecticidal efficacy of the combination is higher than the one calculated as “E”, then the combination of the two compounds is more than additive, i.e., there is a synergistic effect.
(§3) If not mentioned otherwise, the crystalline modification I of 4-{[(6-chloropyrid-3-yl)methyl](methyl)amino} furan-2(5H)-one has been prepared as a water-dispersible or water-soluble powder in an active ingredient concentration of 70% (wt/wt) involving the following formulation auxiliaries, whereas the amount of auxiliaries sums up to 100 wt. %:
(§4) The auxiliaries were mixed with the appropriate amount of the crystalline modification I of 4-{[(6-chloropyrid-3-yl)methyl](methyl)amino} furan-2(5H)-one. There is no water or solvent added. To enable the dry mixture to stick on the seed, the seed were treated with a minimal amount of water, namely 30 μl for 2 g canola seeds, and 800 μl für 20 g cotton seeds.
Seeds of Oil seed rape were treated with the compounds or mixtures and sown. Ca. […]
After the specified period of time, the mortality in % is determined 100% means that all the aphids have been killed; 0% means that none of the aphids have been killed.

The test system of a further data set is Aphis gossypii. The data set is described as follows: Aphis gossypii test, cotton seed treatment. The data set is classed as in vivo. As for the experimental part: as §1, §2, §3, §4
Cotton seeds were treated with the compounds or mixtures and sown. 10 days after germination the plants were infested with a mixed population of the cotton aphid (Aphis gossypii). After the specified period of time, the mortality in % is determined 100% means that all the aphids have been killed; 0% means that none of the aphids have been killed.

With `CN(Cc1ccc(Cl)nc1)C1=CC(=O)OC1` [4-{[(6-chloropyrid-3-yl)methyl](methyl)amino} furan-2(5H)-one], the Mortality in the data set on Myzus persicae (0.025 mg ai/seed, infested ca. 35 days after germination) amounted to 40%; in the data set on Aphis gossypii (after 2 days (head above the row), 0.01 mg ai/seed), 60%; with Aphis gossypii (after 2 days, 0.025 mg ai/seed, infested 10 days after germination), 35%. `C/C(=N\C#N)N(C)Cc1ccc(Cl)nc1` [Acetamiprid]: the Mortality in the data set with Myzus persicae (1 mg ai/seed) worked out at 0%.

In the case of `O=[N+]([O-])NC1=NCCN1Cc1ccc(Cl)nc1` [Imidacloprid], in the data set with Aphis gossypii (after 3 days, 0.01 mg ai/seed), the Mortality turned out to be 0%. As for `CCOC(=O)OC1=C(c2cc(C)ccc2C)C(=O)N[C@]12CC[C@@H](OC)CC2` [Spirotetramat], in the data set on Aphis gossypii (after 2 days, 5 mg ai/seed), the Mortality came to 0%.
